≈ marks a conversion by molar mass, not a printed value. Calls of active or inactive are those of the source. No cut-off for these calls is given here.
How the values were obtained:
Staphylococcus aureus = test: Antibacterial activity against Staphylococcus aureus ATCC 29213 assessed as reduction cell viability after 16 to 20 hrs by CLSI based two-fold serial dilution method; assay type: functional
Enterococcus faecium = test: Antibacterial activity against Enterococcus faecium BM4147-1 assessed as reduction cell viability after 16 to 20 hrs by CLSI based two-fold serial dilution method; assay type: functional
HeLa = test: Cytotoxicity against human HeLa cells assessed as reduction in cell viability after 24 hrs by resazurin staining based fluorescence assay
Bacillus subtilis = test: Antibacterial activity against Bacillus subtilis 168 assessed as reduction cell viability after 16 to 20 hrs by CLSI based two-fold serial dilution method; assay type: functional
Rhodesain = Rhodesain (Trypanosoma brucei rhodesiense, UniProt Q95PM0); test: Inhibition of Trypanosoma brucei rhodesiense C-terminal full length rhodesain expressed in Pichia pastoris using Cbz-PheArg-AMC as substrate measured every 30 sec for 10 mins by fluorescence based assay
[1] = biological target: Rhodesain (Trypanosoma brucei rhodesiense) (UniProt Q95PM0); test: Inhibition of Trypanosoma brucei rhodesiense C-terminal full length rhodesain expressed in Pichia pastoris using Cbz-PheArg-AMC as substrate preincubated for 5 to 30 mins followed by substrate and measured every 30 sec for 10 mins by fluorescence based assay
[2] = biological target: Rhodesain (Trypanosoma brucei rhodesiense) (UniProt Q95PM0); test: Inhibition of Trypanosoma brucei rhodesiense C-terminal full length rhodesain expressed in Pichia pastoris at 50 uM using Cbz-PheArg-AMC as substrate measured every 30 sec for 10 mins in presence of 0.005 to 0.025 % of Brij-35 by fluorescence based assay
[3] = biological target: Rhodesain (Trypanosoma brucei rhodesiense) (UniProt Q95PM0); test: Inhibition of Trypanosoma brucei rhodesiense C-terminal full length rhodesain expressed in Pichia pastoris at 50 uM using Cbz-PheArg-AMC as substrate measured every 30 sec for 10 mins in presence of 4.75 mM DTT by fluorescence based assay

Chain of Rhodesain (Q95PM0 whole entry): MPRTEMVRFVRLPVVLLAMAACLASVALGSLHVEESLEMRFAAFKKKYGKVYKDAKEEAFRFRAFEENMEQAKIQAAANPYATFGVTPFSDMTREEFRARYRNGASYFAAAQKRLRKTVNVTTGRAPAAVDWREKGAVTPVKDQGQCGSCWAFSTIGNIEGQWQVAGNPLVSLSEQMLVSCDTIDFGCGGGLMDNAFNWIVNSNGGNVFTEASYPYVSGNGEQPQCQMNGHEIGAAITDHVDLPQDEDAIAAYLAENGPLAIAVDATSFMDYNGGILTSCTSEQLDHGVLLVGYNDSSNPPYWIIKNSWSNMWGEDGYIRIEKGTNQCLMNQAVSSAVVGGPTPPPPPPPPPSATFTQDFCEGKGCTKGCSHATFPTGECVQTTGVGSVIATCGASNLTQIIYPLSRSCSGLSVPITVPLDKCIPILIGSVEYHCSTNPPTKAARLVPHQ
Chain of Rhodesain (Trypanosoma brucei rhodesiense) (Q95PM0 1-450): as the sequence (Q95PM0 whole entry) above

Compound	MIC (Staphylococcus aureus) [µM]	MIC (Enterococcus faecium) [µM]	IC50 (HeLa) [µM]	MIC (Bacillus subtilis) [µM]	IC50 (Rhodesain) [µM]	inhibition [1]	inhibition [2]	inhibition [3]
O=c1oc(-c2ccc(O)cc2)cc(Cc2ccc(O)cc2)c1Cc1ccc(O)cc1O	50 (≈ 20.8 µg/mL)	100 (≈ 41.6 µg/mL)	84	50 (≈ 20.8 µg/mL)	63	–	–	–
O=C1C(Cc2ccc(O)cc2)=C(Cc2ccc(O)cc2)C(=O)C1(c1ccc(O)cc1)c1cc(Cc2c(Cc3ccc(O)cc3)cc(-c3ccc(O)cc3)oc2=O)c(O)cc1O	3 (≈ 2.44 µg/mL)	13 (≈ 10.6 µg/mL)	33	3 (≈ 2.44 µg/mL)	33	–	–	–
O=C1C(Cc2ccc(O)cc2)=C(Cc2ccc(O)cc2)C(=O)C1(c1ccc(O)cc1)C1(c2ccc(O)cc2)C(=O)C(Cc2ccc(O)cc2)=C(Cc2ccc(O)cc2)C1=O	13 (≈ 10.4 µg/mL)	13 (≈ 10.4 µg/mL)	16	13 (≈ 10.4 µg/mL)	15	Active	Active	Active
